From US20040248837A1, “Methods of treating pulmonary fibrotic disorders” (priority 2002, published 2004)

Assays:
ITGβ6 = ITGβ6 (β6 integrin) gene transcription in lung tissue, RT-PCR; assay type: in vivo, C57BL/6 mice; settings: B6 mice, i.v., 24 hrs; Pam3Cys 25 μg, polyI:C 25 μg, LPS 5 μg, TOG 2 mg, R848 18 μg, ISS 20 μg
Procedure: Twenty μg ISS was injected intravenously (i.v.) into C57BL/6 mice. At 0 hours, 2 hours, 4 hours, 8 hours, 16 hours, and 24 hours after injection, mice were killed and total RNA was isolated from lung. Transcription levels of IGFβ6 (β6 integrin) was analyzed by reverse transcription-polymerase chain reaction (RT-PCR). TNFα, IDO (2,3-indoleaminedioxygenase) and TGFβ1 were used as controls. […] Transcription of the other subunit of ITGαvβ6 (or αvβ6 integrin), i.e., ITGαv, was also analyzed by RT-PCR.
The long-term effect of ISS on gene expression in lung tissue was investigated. Twenty μg ISS was injected i.v. into C57 BL/6 mice. At 0 days, 1 day, 2 days, 3 days, 4 days, and 5 days post injection, mice were killed and total RNA was isolated from lung tissue. Transcription levels were analyzed by RT-PCR. […] The suppression of TGF-β activity was observed indirectly by the induction of MMP-12 (elastase) gene. Under normal conditions, MMP-12 expression is suppressed by TGF-β. […] In contrast, no change in mRNA levels of MMP-9 (gelatinase) was observed.
The kinetics of suppression of gene expression by ISS was analyzed. […] The level of ITGαv mRNA dropped to 20% of the initial levels within 30 minutes after i.v. injection of ISS.
MyD88 is a component of the TLR signaling pathway. It was shown that down-regulation of ITGβ6 gene transcription by ISS in lung tissue is dependent on MyD88. ISS suppressed ITGβ6 gene transcription in normal control mice, but not in MyD88^−/− mice.
Suppression of ITGβ6 gene transcription in lung tissue by a variety of TLR ligands was examined. Six different TLR ligands (Pam3Cys, 25 μg; polyI:C, 25 μg; LPS, 5 μg; TOG, 2 mg; R848, 18 μg; and ISS, 20 μg) were individually injected i.v. into B6 mice. After 24 hrs, mice were sacrificed and total RNA was isolated form lung tissue, and the level of ITGβ6 gene transcription in lung tissue was analyzed by RT-PCR. Each TLR agonist inhibited ITGβ6 gene transcription in lung tissue.

[1] = system: mice repetitively challenged with OVA; experiment: Airway responsiveness to MCh in vivo (Penh, whole body plethysmograph); set-up: species or system BALB/c mice; settings: pilot experiments
Procedure: Female BALB/c mice (16 mice/group) (The Jackson Laboratory, Bar Harbor, Me.) were used when they reached 8-10 wk of age. Mice were immunized s.c. on days 0, 7, 14, and 21 with 25 μg of OVA (OVA, grade V; Sigma) adsorbed to 1 mg of alum (Aldrich) in 200 μl normal saline. Intranasal OVA challenges (20 ng/50 μl in PBS) were administered on days 27, 29 and 31 under isoflurane (Vedco, Inc. St Joseph, Mo.) anesthesia. Intranasal OVA challenges were then repeated twice a week for 1, 3, or 6 months (see FIG. 1 for protocol). Age and sex matched control mice were sensitized but not challenged with OVA during the 1, 3, or 6 month study. Mice were sacrificed 24 hours after the final OVA challenge and bronchoalveolar lavage fluid and lungs were analyzed. […]
Airway responsiveness was assessed 24 hrs after the final OVA challenge (after 1, 3, or 6 months of repetitive OVA challenges), using a single chamber whole body plethysmograph obtained from Buxco (Troy, N.Y.), as previously described in this laboratory. […] The enhanced pause (Penh) correlates closely with pulmonary resistance measured by conventional two-chamber plethysmography in ventilated mice. […] The Penh values measured during each 3-min sequence were averaged and are expressed for each MCh concentration as the percentage of baseline Penh values following PBS exposure (Broide et al. supra).

[2] = system: mice repetitively challenged with OVA; experiment: BAL eosinophil counts; assay type: in vivo, BALB/c mice; settings: pilot experiments
Procedure: (§1) Female BALB/c mice (16 mice/group) (The Jackson Laboratory, Bar Harbor, Me.) were used when they reached 8-10 wk of age. Mice were immunized s.c. on days 0, 7, 14, and 21 with 25 μg of OVA (OVA, grade V; Sigma) adsorbed to 1 mg of alum (Aldrich) in 200 μl normal saline. Intranasal OVA challenges (20 ng/50 μl in PBS) were administered on days 27, 29 and 31 under isoflurane (Vedco, Inc. St Joseph, Mo.) anesthesia. Intranasal OVA challenges were then repeated twice a week for 1, 3, or 6 months (see FIG. 1 for protocol). Age and sex matched control mice were sensitized but not challenged with OVA during the 1, 3, or 6 month study. Mice were sacrificed 24 hours after the final OVA challenge and bronchoalveolar lavage fluid and lungs were analyzed.
Throughout the Examples, therapeutic nucleic acids are referred to as “ISS.” ISS or diluent control was administered intraperitoneally (i.p.) starting 1 day before the first intranasal OVA challenge on day 26, and then continued every other week 1 day before intranasal challenges for 1, 3, or 6 months (see FIG. 1). All animal experimental protocols were approved by the University of California, San Diego Animal Subjects Committees. […]

[3] = system: mice repetitively challenged with OVA; experiment: Quantification of airway remodeling (pilot experiments); assay type: in vivo, BALB/c mice
Procedure: as §1
Different groups of mice (16 mice/group) were administered i.p. endotoxin-free (<1 ng/mg DNA) phosphorothioate ISS-ODN (5′-[…]-3′; SEQ ID NO:01) (Trilink, San Diego, Calif.) (100 μg in 100 μl of sterile, endotoxin-free PBS), M-ODN (5′-[…]-3′; SEQ ID NO:02) which lacks the CpG motif present in ISS, or diluent control starting 1 day before the first intranasal OVA challenge on day 27, and then continuing every other week 1 day before intranasal challenges for 1, 3, or 6 months. […]

[4] = system: mice repetitively challenged with OVA; settings: previous studies in our laboratory; administered 1 day before OVA challenge; cited from earlier work

Molecule | ITGβ6 gene transcription in lung tissue (ITGβ6) | OVA induced airway responsiveness [1] | OVA induced eosinophilic inflammation [2] | features of airway remodeling [3] | OVA induced airway hyperreactivity [4]
Nc1nc2c(sc(=O)n2[C@@H]2O[C@H](CO)[C@@H](O)[C@H]2O)c(=O)[nH]1 [TOG, 7-thia-8-oxo-guanosine] | inhibited |  |  |  | 
M-ODN: 5′-TGACTGTGAAGGTTGGAGATGA-3′ (SEQ ID NO:02), which lacks the CpG motif present in ISS (DNA, backbone and methylation of C not given here) |  | did not inhibit | did not inhibit | did not inhibit | not
polyI:C | inhibited |  |  |  | 
tripalmitoyl-S-glyceryl cysteine [Pam3Cys] | inhibited |  |  |  | 
